In BindingDB's records for PubMed 2795469 (Ciba-Geigy, 1989):

Target: Adenosine receptor A2a (Rattus norvegicus, UniProt P30543)
Sequence (P30543 whole entry): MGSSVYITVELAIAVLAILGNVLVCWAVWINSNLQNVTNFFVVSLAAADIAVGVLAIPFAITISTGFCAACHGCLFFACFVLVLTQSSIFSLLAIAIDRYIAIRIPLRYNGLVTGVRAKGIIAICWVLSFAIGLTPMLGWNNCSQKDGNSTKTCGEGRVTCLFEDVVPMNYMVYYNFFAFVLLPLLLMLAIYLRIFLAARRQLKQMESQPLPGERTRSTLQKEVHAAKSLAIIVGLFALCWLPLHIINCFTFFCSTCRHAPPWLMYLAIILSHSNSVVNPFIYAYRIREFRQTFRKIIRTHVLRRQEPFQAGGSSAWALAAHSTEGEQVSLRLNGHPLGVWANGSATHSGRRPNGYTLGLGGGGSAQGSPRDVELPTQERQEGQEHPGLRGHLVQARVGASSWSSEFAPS

- Ki: 0.115 µM
SMILES: Nc1nc(Nc2ccccc2)nc2c1ncn2[C@@H]1O[C@H](CO)[C@H](O)C1O (stereo partly specified) [(CV 1808) 2-(6-Amino-2-phenylamino-purin-9-yl)-5-hydroxymethyl-tetrahydro-furan-3,4-diol]
